Two compounds from patent EP4477653A1 (Perha Pharmaceuticals, priority 2023, dated 2024) can be followed below.

The target of data set [1] is T1, human recombinant A3AR (expressed in HEK-293 cells) (Homo sapiens, UniProt P0DMS8).
T1 construct: host or cells: HEK-293 cells
T1 sequence (P0DMS8 1-318): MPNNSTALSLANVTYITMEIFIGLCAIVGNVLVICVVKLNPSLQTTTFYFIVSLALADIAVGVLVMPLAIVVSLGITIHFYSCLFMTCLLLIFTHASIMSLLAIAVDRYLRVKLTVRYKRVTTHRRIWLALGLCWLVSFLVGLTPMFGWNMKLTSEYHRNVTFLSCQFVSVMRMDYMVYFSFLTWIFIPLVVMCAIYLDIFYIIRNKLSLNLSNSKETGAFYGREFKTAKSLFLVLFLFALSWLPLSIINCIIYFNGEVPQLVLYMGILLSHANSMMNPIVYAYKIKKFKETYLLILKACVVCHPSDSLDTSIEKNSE
Put plainly: Adenosine receptors antagonism assay (Eurofins), [125I]-AB-MECA radioligand competition. It is filed as binding.

Data set [2] is described as follows: Reversed-phase HPLC analysis of final compounds (stability under the analytical conditions). The data set is classed as physicochemical. On the procedure:
Final compounds: Reversed-phase HPLC/MS analyses were carried out with a HPLC Ultimate 3000 (ThermoScientific) with an UV-DAD detector. Mass detection processing with direct infusion in mass detector (SQD2) from UPLC Acquity (Waters). Compounds (0.2 to 0.6 mg) were solubilized in a mixture of DMSO/H2O (1/1) and filtered on syringe filter 0.2 µm. • Acidic conditions: Thermo Scientific Syncronis C18 column, 150 x 4.6 mm, 5 µm. Flow rate: 1 mL/min. Gradient: (H2O + 0.1% HCOOH v/v)/(ACN + 0.1% HCOOH v/v) from 95/5 to 5/95 in 19.0 min. • Alkaline conditions: Thermo Scientific Syncronis C18 column, 150 × 4.6 mm, 5 µm or XTERRA RP18, 150×4.6mm, 3.5µm. Flow rate: 1 mL/min. Gradient: (HCOONH4 10mM + NH4OH 25% aq. to ajust pH = 10)/ACN from 95/5 to 5/95 in 19.0 min. Table 2: Spectroscopic and analytical characterization of compounds (1) to (220)

Read-outs that look alike come from different tables or passages of the source.

Consider `CSCCCNc1cc(NCc2ccccc2)c2nnc(C(C)C)n2n1` [compound 17, N8-benzyl-3-isopropyl-N6-(3-methylsulfanylpropyl)-[1,2,4]triazolo[4,3-b]pyridazine-6,8-diamine], for which, in data set [1] ([125I]-AB-MECA 0.15 nM, r.t., 120 min, IC50 from dose-response curves, read-out: Potency Class A3AR), the IC50 lay in the range of 10 to 100 nM. Further, the HPLC entry in data set [2] (Acidic conditions (H2O + 0.1% HCOOH / ACN + 0.1% HCOOH gradient)) is given as “Unstable ^a”.

As to `CCC(CC)Nc1cc(NC(=O)Oc2ccccc2)c2nnc(C(C)C)n2n1` [compound 100, phenyl N-[6-(1-ethylpropylamino)-3-isopropyl-[1,2,4]triazolo[4,3-b]pyridazin-8-yl]carbamate], the IC50 in data set [1] was 1 to 10 nM. Moreover, the HPLC result in data set [2] (Alkaline conditions (HCOONH4 10mM + NH4OH, pH = 10 / ACN gradient)) was “Unstable ^b”.
